Data set [1] deals with Mdr2^−/− mice. As to the kind of experiment: First study: dietary supplementation of Mdr2−/− mice (mouse model of human PSC and PFIC) for 17 weeks. Particulars: mono-treatment, 0.03% OCA or 1% THBA (w/w) in diet, from 3 to 20 weeks of age, female mice.
The test system of data set [2] is Mdr2^−/− mice. Conditions: mouse, in vivo.

Read-outs that look alike come from different tables or passages of the source.

With `CC[C@H]1[C@@H](O)[C@@H]2[C@H](CC[C@]3(C)[C@@H]([C@H](C)CCC(=O)O)CC[C@@H]23)[C@@]2(C)CC[C@@H](O)C[C@@H]12` [OCA, Obeticholic acid, reference compound], the adverse effects result in the data set on Mdr2^−/− mice [1] is recorded as “no significant, obvious, adverse effects”.
Turning to `C[C@H](CCC(=O)O)[C@H]1CC[C@H]2[C@@H]3[C@H](O)[C@H](O)[C@@H]4C[C@H](O)CC[C@]4(C)[C@H]3C[C@H](O)[C@]12C` [THBA, 3α, 6α, 7α, 12α-tetrahydroxy-5β-cholan-24-oic acid], the adverse effects result in the data set on Mdr2^−/− mice [2] is given as “no significant, obvious, adverse effects”. Further, in the data set on Mdr2^−/− mice [1], the “liver indicator profiles (bilirubin, ALT, ALP, total bile acids in plasma)” value was “significantly improved liver indicator profiles”.

Values taken from patent publication US20220227804A1, “COMBINATION OF A POLYHYDROXYLATED BILE ACID AND A FARNESOID X RECEPTOR AGONIST” (QING BILE THERAPEUTICS INC., priority 2019, published 2022).
